Test results taken from patent publication US8933070B2, “Methods of targeting PTEN mutant diseases and compositions therefor” (University Health Network, priority 2010, dated 2015).

How the values were obtained:
human PLK4 = biological target: T1, human PLK4 (Homo sapiens, UniProt O00444); experiment: PLK4 inhibition assay (indirect ELISA); type: biochemical
T1 construct: amino terminal GST fusion of residues 1-391 of human PLK4; made in house; host or cells: E. coli
T1 sequence (O00444 1-391): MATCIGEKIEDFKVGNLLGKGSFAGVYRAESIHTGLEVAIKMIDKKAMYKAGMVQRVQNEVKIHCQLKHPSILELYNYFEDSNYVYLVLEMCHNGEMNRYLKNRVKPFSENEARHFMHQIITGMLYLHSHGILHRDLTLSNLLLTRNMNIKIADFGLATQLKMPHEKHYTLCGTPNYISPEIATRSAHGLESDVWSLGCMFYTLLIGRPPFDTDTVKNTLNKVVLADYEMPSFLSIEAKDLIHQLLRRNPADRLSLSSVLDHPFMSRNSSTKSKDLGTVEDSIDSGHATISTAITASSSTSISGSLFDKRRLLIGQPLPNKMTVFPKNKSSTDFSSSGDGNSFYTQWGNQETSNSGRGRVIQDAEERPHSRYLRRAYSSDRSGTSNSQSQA
Protocol: The protein was purified from clarified cell extracts after induction at 15° C. overnight using glutathione sepharose, gel permeation chromatography, and ion exchange (Resource Q). The resulting protein was dephosphorylated with lambda phosphatase (NEB cat# P0753), and resolved from the phosphatase using gluthione sepharose. The dephosphorylated GST-PLK4 was stored in aliquots at −80° C. until use.
PLK4 activity was measured using an indirect ELISA detection system. […] The colourimetric reaction was allowed to continue for 5 minutes, followed by addition of stop solution (0.5 N sulphuric acid), and quantified by detection at 450 nm with either a monochromatic or filter based plate reader (Molecular Devices M5 or Beckman DTX880, respectively).
Compounds were pre-incubated in the presence of enzyme for 15 minutes prior to addition of ATP and the activity remaining quantified using the above described activity assay. […] The IC50 value was determined using a non-linear 4 point logistic curve fit (XLfit4, IDBS) with the formula; (A+(B/(1+((x/C)^D)))), where A=background value, B=range, C=inflection point, D=curve fit parameter.

AMPKalpha = experiment: Kinase selectivity assay (CEREP, HTRF); type: biochemical, human
Protocol: The inhibitory activity of selected compounds was evaluated against a panel of 45 different kinase enzymes by CEREP, France. The assays were performed using standard HTRF assay methods as documented by CEREP against the human orthologues of Abl kinase, Akt1/PKBa, AMPKa, BMX kinase (Etk), Brk, CaMK2a, CaMK4, CDC2/CDK1 (cycB), CHK1, CHK2, c-Met kinase, CSK, EphB4 kinase, ERK1, ERK2 (P42mapk), FGFR2 kinase, FGFR4 kinase, FLT-1 kinase (VEGFR1), FLT-3 kinase, Fyn kinase, IGF1R kinase, IRK (InsR), JNK 2, KDR kinase (VEGFR2), Lck kinase, Lyn kinase, MAPKAPK2, MEK1/MAP2K1, p38a kinase, p38d kinase, p38g kinase, PDGFRb kinase, PDK1, PKA, PKCa, PKCb1, PKCb2, PKCg, Ret kinase, ROCK2, RSK2, Src kinase, Syk, and TRKA. The % Inhibition was determined by the formula; % Inhibition=100×(1−(experimental value−background value)/(high activity control−background value)).

KDR (VEGFR2) = KDR (VEGFR2) (Homo sapiens, UniProt P35968); experiment: Kinase selectivity assay (CEREP, HTRF); type: biochemical; conditions: read-out: % Inhibition at 10 μM Concentration
Method in brief: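 Percent inhibition, derived from HTRF signal corrected for background and scaled against a high-activity control, is reported for the human kinase. Testing formed part of a 45-enzyme selectivity panel run under standard HTRF conditions.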

[1] = tested on: HCT116 p53^+/+ colon cancer cell line; experiment: Cell growth inhibition, SRB assay, extended panel; type: cell-based; conditions: Homo sapiens, HCT-116, read-out: GI50 Range HCT116 p53^+/+
Protocol: (§1) Breast cancer cells (MCF-7, MDA-MB-468 and HCC1954), colon cancer cells (SW620) and lung cancer cells (A549), together with human mammary epithelial primary cells (HMEC) were seeded (1000 to 4000 per 80 μl per well depending on the cell growth rate) into 96-well plates 24 hours before compound overlay. Compounds were prepared as 10 mM stock solutions in 100% DMSO which were diluted with DMEM (Dulbecco's Modified Eagle's Medium) cell growth Medium (Invitrogen, Canada) containing 10% FBS (Fetal Bovine Serum) to concentrations ranging from 50 nM to 250 μM. Aliquots (20 μl) from each concentration were overlaid to 80 μl of the pre-seeded cells in the 96-plates to make final concentrations of 10 nM to 50 μM. The cells were cultured for 5 days before the Sulforhodamine B (SRB) assay was performed to determine the compound's cell growth inhibition activity.
(§2) Sulforhodamine B (Sigma, Canada) is a water-soluble dye that binds to the basic amino acids of cellular proteins. Thus, colorimetric measurement of the bound dye provides an estimate of the total protein mass that is related to the cell number. The cells are fixed in situ by gently aspirating off the culture media and adding 50 μl ice cold 10% Trichloroacetic Acid (TCA) per well and incubated at 4° C. for 30-60 min. The plates are washed with water five times and allowed to air dry for 5 min. Addition of 50 μl 0.4% (w/v) SRB solution in 1% (v/v) acetic acid to each well and incubatation for […] at RT completes the staining reaction. Following staining, plates are washed four times with 1% acetic acid to remove unbound dye and then allowed to air dry for 5 min. The stain is solubilized with 100 μl of 10 mM Tris pH 10.5 per well. Absorbance is read at 570 nm.
(§3) The percentage (%) of relative growth inhibition was calculated by comparing to DMSO-treated only cells (100%). GI50's were determined for compounds with cytotoxic activity. The GI50 was calculated using GraphPad PRISM software (GraphPad Software, Inc., USA).
(§4) In addition to the cell lines tested as described above, selected compounds have been assayed against an extended panel. These include: breast cancer cell lines (T-47D, MDA-MB-231, Hs578T, 8T-474, SKBr-3 and HCC1954), a lung cancer cell line (H358), brain cancer cell lines (A172, Hs683 and SK-N-SH), colon cancer cell lines (Colo 205, HCT-15, HCT116 p53^+/+ and HCT116 p53^−/−), ovarian cancer cell lines (OVCAR-3, SK-OV-3 and SW626), a melanoma cell line (518A2), a prostate cancer cell line (PC-3) and an immortalized breast cell line (184A1). The SRB assay described above was used to assay test compounds against the extended panel (Table 6).

[2] = tested on: HCT116 p53^−/− colon cancer cell line; experiment: Cell growth inhibition, SRB assay, extended panel; type: cell-based; conditions: Homo sapiens, HCT-116, read-out: GI50 Range HCT116 p53^−/−
Protocol: as §1, §2, §3, §4

Chain of KDR (VEGFR2) (P35968 20-1356): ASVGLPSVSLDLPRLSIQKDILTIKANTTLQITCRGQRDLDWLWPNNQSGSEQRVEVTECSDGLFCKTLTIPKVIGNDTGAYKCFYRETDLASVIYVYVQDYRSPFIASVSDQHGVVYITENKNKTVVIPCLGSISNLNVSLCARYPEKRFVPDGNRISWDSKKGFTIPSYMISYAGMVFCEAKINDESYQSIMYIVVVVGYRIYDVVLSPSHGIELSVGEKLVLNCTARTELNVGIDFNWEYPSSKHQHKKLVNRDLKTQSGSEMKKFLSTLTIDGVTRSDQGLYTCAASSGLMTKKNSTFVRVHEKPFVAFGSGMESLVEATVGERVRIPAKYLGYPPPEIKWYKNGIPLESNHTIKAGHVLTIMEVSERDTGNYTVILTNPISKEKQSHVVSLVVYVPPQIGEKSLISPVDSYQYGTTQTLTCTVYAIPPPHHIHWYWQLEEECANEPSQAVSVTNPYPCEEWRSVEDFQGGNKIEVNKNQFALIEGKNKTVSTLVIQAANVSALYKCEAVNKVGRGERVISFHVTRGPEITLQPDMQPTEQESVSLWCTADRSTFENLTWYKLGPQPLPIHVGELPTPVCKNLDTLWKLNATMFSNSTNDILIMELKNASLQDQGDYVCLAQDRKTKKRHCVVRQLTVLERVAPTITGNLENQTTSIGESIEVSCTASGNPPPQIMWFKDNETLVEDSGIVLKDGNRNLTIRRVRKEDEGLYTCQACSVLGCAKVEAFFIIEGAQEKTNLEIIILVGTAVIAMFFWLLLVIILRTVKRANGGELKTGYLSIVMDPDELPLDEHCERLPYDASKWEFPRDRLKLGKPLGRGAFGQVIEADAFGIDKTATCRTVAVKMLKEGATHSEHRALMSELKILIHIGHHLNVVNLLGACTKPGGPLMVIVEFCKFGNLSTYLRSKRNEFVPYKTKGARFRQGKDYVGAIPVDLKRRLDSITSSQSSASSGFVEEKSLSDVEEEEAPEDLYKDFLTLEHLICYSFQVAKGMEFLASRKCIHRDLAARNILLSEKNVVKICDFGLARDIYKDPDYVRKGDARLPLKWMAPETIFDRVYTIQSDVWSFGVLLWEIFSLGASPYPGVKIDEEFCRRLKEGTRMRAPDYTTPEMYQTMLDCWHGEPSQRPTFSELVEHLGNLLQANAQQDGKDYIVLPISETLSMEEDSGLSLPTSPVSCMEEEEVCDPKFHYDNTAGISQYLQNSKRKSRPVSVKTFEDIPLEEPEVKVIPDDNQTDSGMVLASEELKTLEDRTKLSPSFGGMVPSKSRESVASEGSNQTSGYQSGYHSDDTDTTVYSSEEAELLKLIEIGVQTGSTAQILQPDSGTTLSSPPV

Question: Which IC50 (human PLK4) does the source give for `COc1ccc2c(c1)[C@@]1(C[C@@H]1c1ccc3c(-c4ccc(N5CCN(C)CC5)nc4)n[nH]c3c1)C(=O)N2` (racemic) [Compound 2] here?
Answer: < 5 µM

Question: For `CN(C)Cc1ccc(/C=C/c2n[nH]c3cc([C@H]4C[C@@]45C(=O)Nc4ccccc45)ccc23)cc1` (racemic) [Compound 35], which “% Inhibition at 10 μM Concentration” value (AMPKalpha) is on record?
Answer: 69%

Question: `COc1ccc2c(c1)/C(=C\c1ccc3c(/C=C/c4ccc(N5CCN(C)CC5)nc4)n[nH]c3c1)C(=O)N2` [Compound 3] was tested. Which inhibition at 10 µM (KDR (VEGFR2)) did it give?
Answer: 32%

Question: And the GI50 [1]?
Answer: < 5 µM

Question: What about the GI50 [2] of the same compound?
Answer: < 5 µM
